The values below come from patent publication US9775353B2, “Pesticidally active heterocyclic derivatives with sulphur containing substituents” (Syngenta Participations AG, priority 2014, dated 2017).

Data set [1] has as its system Spodoptera littoralis (Egyptian cotton leaf worm). As to the kind of experiment: Example B1: Activity against Spodoptera littoralis (larvicide, feeding/residual contact, preventive). It counts as in vivo. As to conditions: foliar, 72 h, cotton leaf discs sprayed, L1 larvae, mortality, repellent effect, feeding behaviour, growth regulation 3 days after treatment. From the text:
Example B1: Activity Against Spodoptera littoralis (Egyptian Cotton Leaf Worm) (Larvicide, Feeding/Residual Contact Activity, Preventive) Cotton leaf discs were placed on agar in a 24-well microtiter plate and sprayed with test solutions. After drying, the leaf discs were infested with 5 L1 larvae. The samples were checked for mortality, repellent effect, feeding behaviour, and growth regulation 3 days after treatment (DAT).

The subject of data set [2] is Plutella xylostella (diamond back moth). As to the kind of experiment: Example B2: Activity against Plutella xylostella (larvicide, feeding/residual contact, preventive). It counts as in vivo. The settings on record: 120 h, artificial diet, L2 larvae, larval mortality, antifeedant, growth regulation after 5 days. On the procedure: Example B2: Activity Against Plutella xylostella (Diamond Back Moth) (Larvicide, Feeding/Residual Contact Activity, Preventive) 24-well microtiter plate (MTP) with artificial diet was treated with test solutions by pipetting. After drying, the MTPs were infested with L2 larvae (10-15 per well). After an incubation period of 5 days, samples were checked for larval mortality, antifeedant and growth regulation.

The subject of data set [3] is Diabrotica balteata (corn root worm). As to the kind of experiment: Example B3: Activity against Diabrotica balteata (larvae L2 on maize sprouts, feeding/contact, preventative). It counts as in vivo. As to conditions: 120 h, maize sprouts sprayed, larval mortality and growth regulation after 5 days. On the procedure: Example B3: Activity Against Diabrotica balteata (Corn Root Worm) (Larvae L2 on Maize Sprouts, Feeding/Contact, Preventative) Maize sprouts, placed on an agar layer in 24 well micro titer plates were treated with test solutions by spraying. After drying, the MTPs were infested with L2 larvae (6-10 per well). After an incubation period of 5 days, samples were checked for larval mortality and growth regulation.

Data set [4] relates to Bemisia tabaci (cotton white fly). As to the kind of experiment: Example B5: Activity against Bemisia tabaci (adulticide contact activity, preventative). Type of data set: in vivo. The settings on record: foliar, 168 h, cotton leaf discs sprayed, adult white flies, mortality 7 DAT. As for the experimental part: Example B5: Activity Against Bemisia tabaci (Cotton White Fly) (Adulticide Contact Activity, Preventative), Adult Cotton leaf discs were placed on agar in a 24-well microtiter plate and sprayed with test solutions. After drying, the leaf discs were infested with adult white flies. After an incubation period of 7 DAT, samples were checked for mortality and special effects (e.g. phytotoxicity).

Data set [5] has as its system Spodoptera littoralis (Egyptian cotton leaf worm). Kind of data set: Example B7: Activity against Spodoptera littoralis (systemic activity). Type of data set: in vivo. The settings on record: 120 h, systemic via lettuce roots in agar, mortality, repellent effect, feeding behavior, growth regulation 5 days after infestation. From the text: Example B7: Activity Against Spodoptera littoralis (Egyptian Cotton Leaf Worm) (Systemic Activity) Test compounds were applied by pipette into 24 well plates and mixed with agar. Lettuce seeds were placed on the agar and the multi well plate is closed by another plate which contains also agar. After 7 days the roots have absorbed the compound and the lettuce has grown into the lid plate. The lettuce leaves were now cut off into the lid plate. Spodoptera eggs were pipetted through a plastic stencil on a humid gel blotting paper and the plate closed with it. The samples are checked for mortality, repellent effect, feeding behavior, and growth regulation 5 days after infestation.

Data set [6] deals with Myzus persicae (green peach aphid). Kind of data set: Example B8: Activity against Myzus persicae (feeding/residual contact, preventive, mixed population). It counts as in vivo. As to conditions: foliar, 144 h, sunflower leaf discs sprayed, mixed ages, mortality 6 DAT. On the procedure:
Example B8: Activity Against Myzus persicae (Green Peach Aphid) (Feeding/Residual Contact Activity, Preventive), Mixed Population Sunflower leaf discs were placed on agar in a 24-well microtiter plate and sprayed with test solutions. After drying, the leaf discs were infested with an aphid population of mixed ages. After an incubation period of 6 DAT, samples were checked for mortality and special effects (e.g. phytotoxicity).

For data set [7], the system named is Euschistus heros (neotropical brown stink bug). As to the kind of experiment: Example B10: Activity against Euschistus heros. It counts as in vivo. As to conditions: 120 h, soybean leaf sprayed, N-2 nymphs, mortality 5 days after infestation. As for the experimental part:
Example B10: Activity Against Euschistus heros (Neotropical Brown Stink Bug) Soybean leaf on agar in 24-well microtiter plates were sprayed with aqueous test solutions prepared from 10,000 ppm DMSO stock solutions. After drying the leaf were infested with N-2 nymphs. The samples were assessed for mortality 5 days after infestation.

Data set [8] has as its system Thrips tabaci (onion thrips). Kind of data set: Example B11: Activity against Thrips tabaci. It counts as in vivo. As to conditions: foliar, 144 h, application rate 400 ppm, sunflower leaf discs sprayed, mixed ages, 6 days after infestation. On the procedure:
Example B11: Activity Against Thrips tabaci (Onion Thrips)
Sunflower leaf discs were placed on agar in 24-well microtiter plates and sprayed with aqueous test solutions prepared from 10,000 ppm DMSO stock solutions. After drying the leaf discs were infested with a thrips population of mixed ages. The samples were assessed for mortality 6 days after infestation.

Data set [9] has as its system Tetranychus urticae (two-spotted spider mite). Kind of data set: Example B12: Activity against Tetranychus urticae. Type of data set: in vivo. As to conditions: foliar, 192 h, application rate 400 ppm, bean leaf discs sprayed, mixed population (mobile stages), 8 days after infestation. On the procedure:
Example B12: Activity Against Tetranychus urticae (Two-Spotted Spider Mite)
Bean leaf discs on agar in 24-well microtiter plates were sprayed with aqueous test solutions prepared from 10,000 ppm DMSO stock solutions. After drying the leaf discs were infested with a mite population of mixed ages. The samples were assessed for mortality on mixed population (mobile stages) 8 days after infestation.

Bounds are passed on as bounds.

On to `CCS(=O)(=O)c1cc(-c2ccc(F)cc2F)cnc1-c1nc2cc(C(F)(F)F)ncc2n1C` [Compound P41], for which the melting point (commonly the temperature, or range, at which the solid turns liquid) lay within 223 to 225 °C.
`CCS(=O)(=O)c1cc(-c2cccc(C#N)c2)cnc1-c1nc2cc(C(F)(F)F)ncc2n1C` [Compound P44]: the melting point fell in the range of 257 to 259 °C.
Regarding `CCS(=O)(=O)c1cc(-c2cccc(C(F)(F)F)c2)cnc1-c1nc2cc(C(F)(F)F)ncc2n1C` [Compound P3], the pest or weed control at 400 ppm in data set [1], in [2], in data set [3], in data set [4], in data set [6] and in [7] was above 80% throughout. The pest or weed control (as a rule, the degree to which the test organism was suppressed or injured, in per cent) at 12.5 ppm in data set [5] is at least 80%.
In the case of `CCS(=O)(=O)c1cc(-c2ccccc2)cnc1-c1nc2cc(C(F)(F)F)ncc2n1C` [Compound P39], the melting point fell in the range of 170 to 172 °C.
In the case of `CCS(=O)(=O)c1cc(-c2ccc(Cl)cc2)cnc1-c1nc2cc(C(F)(F)F)ncc2n1C` [Compound P1, 2-[5-(4-chlorophenyl)-3-ethylsulfonyl-2-pyridyl]-3-methyl-6-(trifluoromethyl)imidazo[4,5-c]pyridine], the pest or weed control at 400 ppm in [1], in data set [2], in data set [3], in data set [4], in [6] and in data set [7] was above 80% in each case. In [5], this molecule returned a pest or weed control at 12.5 ppm of at least 80%.
`CCS(=O)(=O)c1cc(-c2cc(Cl)cc(Cl)c2)cnc1-c1nc2cc(C(F)(F)F)ncc2n1C` [Compound P42]: the melting point was 270 to 272 °C.
As to `CCS(=O)(=O)c1cc(-c2ccc(F)cc2)cnc1-c1nc2cc(C(F)(F)F)ncc2n1C` [Compound P13], the pest or weed control at 400 ppm in data set [1], in data set [2], in data set [3], in [4], in data set [6] and in data set [7] was above 80% throughout. This molecule also registered a pest or weed control at 12.5 ppm in data set [5] of at least 80%. Moreover, in [8], the mortality (in general, the share of the test organisms that died) at 400 ppm was at least 80%.
Turning to `CCS(=O)(=O)c1cc(-c2ccc(OC(F)(F)F)cc2)cnc1-c1nc2cc(C(F)(F)F)ncc2n1C` [Compound P45], the melting point lay within 181 to 183 °C.
`CCS(=O)(=O)c1cc(-c2cc(Cl)c(F)c(Cl)c2)cnc1-c1nc2cc(C(F)(F)F)ncc2n1C` [Compound P43] registered a melting point of 235 to 237 °C.
Turning to `CCS(=O)(=O)c1cc(-c2cccc(OC(F)(F)F)c2)cnc1-c1nc2cc(C(F)(F)F)ncc2n1C` [Compound P25], the pest or weed control at 400 ppm in [1], in data set [2], in data set [3], in data set [4], in data set [6] and in data set [7] was above 80% throughout. The same molecule had a pest or weed control at 12.5 ppm in [5] of at least 80%.
Consider `CCS(=O)(=O)c1cc(-c2ccccc2C(F)(F)F)cnc1-c1nc2cc(C(F)(F)F)ncc2n1C` [Compound P4], for which the pest or weed control at 400 ppm in [1] and in [3] was above 80% throughout. In [9], this molecule gave a mortality at 400 ppm of at least 80%.
As to `CCS(=O)(=O)c1cc(-c2cccc(Cl)c2)cnc1-c1nc2cc(C(F)(F)F)ncc2n1C` [Compound P5], the pest or weed control at 400 ppm in data set [1], in data set [2], in [3], in [4], in data set [6] and in [7] was above 80% throughout. In [5], this molecule gave a pest or weed control at 12.5 ppm of at least 80%.
For the molecule `CCS(=O)(=O)c1cc(-c2cc(F)cc(F)c2)cnc1-c1nc2cc(C(F)(F)F)ncc2n1C` [Compound P7], the pest or weed control at 400 ppm in data set [1], in data set [2], in data set [3], in data set [4], in [6] and in [7] was above 80% each time. The pest or weed control at 12.5 ppm in data set [5] is at least 80%. The mortality at 400 ppm in data set [8] was at least 80%.
With `CCS(=O)(=O)c1cc(-c2ccc(C#N)cc2)cnc1-c1nc2cc(C(F)(F)F)ncc2n1C` [Compound P36], the pest or weed control at 400 ppm in data set [1], in [2], in data set [3], in data set [4], in data set [6] and in data set [7] was above 80% throughout. In addition, the pest or weed control at 12.5 ppm in [5] is at least 80%. In addition, the mortality at 400 ppm in data set [8] and in [9] was at least 80% each time.
